For the series, the system named is MM.1S cells. Briefly: Chemosensitivity evaluation of MM.1S cells to bortezomib in the pumpless culture platform (LIVE/DEAD in situ staining, HCS). The note with it: 4 h treatment, 24 h recovery. In kind it is cell-based, human. On the procedure:
The high-throughput capability of the pumpless culture platform was evaluated by studying the response of MM.1S cells to bortezomib at four different concentrations (0 nM, 5 nM, 10 nM, 20 nM). Bortezomib is a proteasome inhibitor that induces MM cell apoptosis.^29 Before introducing MM.1S cells, OSB were dynamically cultured for 4 days (in a CO2 incubator at […]). MM.1S cells were pre-labeled with 5 μM cell trace violet (Thermo Fisher Scientific), 10 μL MM.1S with a cell density of 4 million/ml were seeded into culture chambers ([…]). The device was then placed inside a CO2 incubator at 37° C. for 4 h to let MM.1S settle prior to starting the flow. Cells were co-cultured for another 24 h, and then treated with bortezomib for 4 h. After drug treatment, the medium was changed and cultures were allowed to recover for a 24 h period before analyses were conducted. MM.1S alone, cultured in the device but under static conditions were used as control.
Cell viability after treatment and recovery was determine as described above, using LIVE/DEAD Viability/Cytotoxicity Kit (0.1 μM calcein AM & 0.1 μM EthD-1). Culture chambers were scanned using HCS (CellInsight™ CX5, Thermo Fisher Scientific). Cell trace violet^+ calcein AM^+ cells were identified as live MM.1S and cell trace violet^+ EthD-1^+ cells were identified as dead cells, using pre-design CX5 software algorithms (HCS Studio 2.0 Cell Analysis Software) for cell quantification and rapid analysis.
Data quantification was performed automatically using the HCS Studio Software. The percentage of live (cell trace violet^+ calcein AM^+ cells/cell trace violet^+ cells) and dead (cell trace violet^+EthD-1^+/cell trace violet^+ cells) MM.1S cells were plotted against bortezomib concentration.

For the molecule `CC(C)C[C@H](NC(=O)[C@H](Cc1ccccc1)NC(=O)c1cnccn1)B(O)O` [bortezomib], the viability at 0.005 µM (Homo sapiens, MM1.S, MM.1S cultured alone, static, bortezomib 5 nM, read-out: viability (percentage of live MM.1S: cell trace violet+ calcein AM+ cells/cell trace violet+ cells)) was roughly 60%. Under “Homo sapiens, MM1.S, MM.1S cultured alone, static, bortezomib 10 nM, read-out: viability (percentage of live MM.1S: cell trace violet+ calcein AM+ cells/cell trace violet+ cells)”, the viability at 0.01 µM is roughly 15%. Also, where the note is “MM.1S in co-culture with OSB (hFOB 1.19), dynamic culture, bortezomib treatment range 0 nM to 10 nM”, the “viability (percentage of live MM.1S: cell trace violet+ calcein AM+ cells/cell trace violet+ cells)” value is roughly 70%.

The values are drawn from patent publication US11421194B2, “Pumpless platform for high-throughput dynamic multicellular culture and chemosensitivity evaluation” (Hackensack Meridian Health Center For Discovery and …, priority 2018, dated 2022).
